Laboratory results: PubChem BioAssay (NCI)
Several values for one entry are separate records, joined by “and”; a condition that tells them apart may be missing. Equal values may be shown once.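 Results reflect a 48-hour exposure of cells in 96-well plates to compound at five concentrations. GI50 is the concentration that inhibits growth by half. TGI marks complete inhibition of growth.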

Legend:
Test in all cases: growth of human tumour cells (NCI), 48 h
OVCAR-3 ovarian = system: OVCAR-3 ovarian
M14 melanoma = system: M14 melanoma
BT-549 breast = system: BT-549 breast
SNB-19 CNS = system: SNB-19 CNS
UO-31 renal = system: UO-31 renal
NCI/ADR-RES ovarian = system: NCI/ADR-RES ovarian
MDA-MB-435 = system: MDA-MB-435
SR leukemia = system: SR leukemia
OVCAR-5 ovarian = system: OVCAR-5 ovarian
SN12C renal = system: SN12C renal

| Structure (SMILES) | GI50 (OVCAR-3 ovarian) [µM] | TGI (OVCAR-3 ovarian) | GI50 (M14 melanoma) [µM] | TGI (M14 melanoma) | GI50 (BT-549 breast) [µM] | TGI (BT-549 breast) | GI50 (SNB-19 CNS) [µM] | TGI (SNB-19 CNS) [µM] | GI50 (UO-31 renal) [µM] | TGI (UO-31 renal) | GI50 (NCI/ADR-RES ovarian) [µM] | TGI (NCI/ADR-RES ovarian) [µM] | GI50 (MDA-MB-435) [µM] | TGI (MDA-MB-435) | GI50 (SR leukemia) [µM] | TGI (SR leukemia) [µM] | GI50 (OVCAR-5 ovarian) [µM] | TGI (OVCAR-5 ovarian) | GI50 (SN12C renal) | TGI (SN12C renal) [µM] |
| --- | --- | --- | --- | --- | --- | --- | --- | --- | --- | --- | --- | --- | --- | --- | --- | --- | --- | --- | --- | --- |
| O=C1c2cccc3c([N+](=O)[O-])ccc(c23)C(=O)N1CCCCl | 2.2 | 4.72 µM | 5.85 | > 10 µM | 4.82 | > 10 µM | > 10 | > 10 | > 10 | > 10 µM | 8.42 | > 10 | > 10 | > 10 µM | 0.334 | > 10 | > 10 | > 10 µM | 5 µM | > 10 |
| CC[C@]12C=CCN3CC[C@@]4(c5ccc(OC)cc5N(C)[C@H]4[C@@](O)(C(=O)OC)[C@@H]1OC(=O)CCCC[P+](c1ccccc1)(c1ccccc1)c1ccccc1)[C@@H]32 | 0.41 | 2.23 µM | 1.45 | 4.13 µM | 0.465 | 1.94 µM | 0.384 | 2.92 | 12.8 | 26.4 µM | > 100 | > 100 | 0.359 | 1.31 µM | 0.446 | 4.14 | 1.82 | 12.5 µM | 0.414 µM | 8.26 |
| COc1ccc(-c2cc(=O)c3c(OC)c(O)c(OC)cc3o2)cc1 | – | > 100 µM | – | > 100 µM | – | > 100 µM | – | > 100 | – | > 100 µM | – | > 100 | – | > 100 µM | – | > 100 | – | > 100 µM | – | > 100 |
| COc1ccc2c3c(ccc2c1)NC(C(=O)O)CC3 (centres undefined) | – | > 100 µM | – | > 100 µM | – | > 100 µM | – | > 100 | – | > 100 µM | – | > 100 | – | > 100 µM | – | 58.4 | – | > 100 µM | – | > 100 |
| O=C(NCCN1CCOCC1)Nc1nc2ccc(Sc3nnc4ccc(-c5ccc(F)cc5)nn34)cc2s1 | > 100 | > 100 µM | – | > 38.8 µM | 2.62 | > 27.8 µM | 2.8 | > 100 | > 100 | > 100 µM | > 100 | > 100 | – | > 100 µM | 5.04 | > 100 | > 39 | > 100 µM | – | > 100 |
| Cc1ccc(C(=O)Nc2ccc(CN3CCN(C)CC3)c(C(F)(F)F)c2)cc1C#Cc1cnc(N)c2ccc(C#N)cc12 | 1.25 | 19.2 µM | 0.0234 | 2.34 µM | 10.1 | > 50 µM | 3.2 | 19.9 | 0.0224 | 2.26 µM | 2.03 | 10.1 | 0.0259 | 1.65 µM | 0.135 | – | 5.85 | 16.4 µM | 0.0164 µM | 3.07 |
| O=C(/C=C/c1ccccc1)Nc1ncc(Cc2ccccc2)s1 | 0.258 | 1.44 µM | 0.114 | 3.03 µM | 1.17 | > 100 µM | 0.392 | > 52.3 | 0.463 | 23.3 µM | 0.178 | 5.5 | 0.0286 | 0.1 µM | 0.0501 | 10.2 | 0.469 | 35.8 µM | 0.597 µM | > 52 |
| CN(C)c1ccc(/C=N/NC(=O)CSc2nc3sc4c(c3c(=O)n2-c2ccccc2)CCCCC4)cc1 | 3.62 | > 100 µM | 8.26 | > 100 µM | 16.1 | > 100 µM | 6.66 | 80.9 | > 100 | > 100 µM | 7.85 | > 100 | 5.07 | > 100 µM | 3 | > 100 | 6.55 | > 100 µM | 4.59 µM | > 100 |
| COc1ccc(NC(=O)COc2ccccc2)c(C(N)=O)c1 | 0.403 | 2.88 µM | 0.499 | > 100 µM | 0.621 | > 100 µM | 1.9 | > 68.9 | 6.99 | > 100 µM | 0.574 | 11.9 | 0.156 | 0.845 µM | 0.466 | > 50.2 | 7.14 | > 100 µM | 5.53 µM | > 100 |
| NNC(=O)C(O)C(O)C(O)CO (centres undefined) | – | > 100 µM | – | > 100 µM | – | > 100 µM | – | > 100 | – | > 100 µM | – | > 100 | – | > 100 µM | – | > 100 | – | > 100 µM | – | > 100 |
| COc1ccc2c(c1)O/C(=C\c1ccc([N+](=O)[O-])o1)C2=O | 1.19 | 2.53 µM | 1.64 | 3.74 µM | 1.56 | 3.07 µM | 3.09 | > 100 | 1.41 | 4.3 µM | 2.74 | > 30.1 | 1.61 | 3.49 µM | 0.178 | 0.964 | 2.27 | 5.78 µM | 2.45 µM | > 100 |
| COc1ccc(C2CC(c3ccc4ccccc4c3)=NN2/C=C2\SC(=S)N(NC(=O)Cc3ccccc3Nc3c(Cl)cccc3Cl)C2=O)cc1 (centres undefined) | 0.343 | – | 0.4 | 5.4 µM | 0.681 | > 43 µM | 0.636 | > 46.8 | 0.354 | – | 0.421 | > 34.5 | 0.221 | 0.547 µM | 0.309 | > 100 | 1.74 | > 45.6 µM | 0.647 µM | > 48.9 |
| CS(=O)(=O)c1nccc(-c2c(-c3cccc(OCc4ccccc4)c3)nc3sccn23)n1 | 14.4 | > 100 µM | 13.9 | > 100 µM | 11.6 | > 100 µM | > 43.8 | > 100 | 21.2 | 78 µM | 20.3 | > 100 | 13.3 | > 100 µM | 4.49 | > 100 | > 100 | > 100 µM | 26.2 µM | > 100 |
| Cc1cc(C)nc(NS(=O)(=O)c2ccc(Nc3nc4nc(NCc5ccccc5)nc(-c5ccc(O)cc5)c4c(=O)[nH]3)cc2)n1 | 6.18 | 29.5 µM | 37.5 | > 100 µM | 10.8 | 52.9 µM | 27.4 | > 100 | 6.39 | > 100 µM | > 100 | > 100 | 21.3 | > 100 µM | 17.9 | 81.3 | > 100 | > 100 µM | 25.1 µM | > 100 |
| COc1ccc(C(=O)OC2C(OC3C(O)COC(O[C@H]4C[C@H]5[C@@H]6CC=C7C[C@@H](O)CC[C@]7(C)[C@H]6CC[C@]5(C)[C@H]4[C@H](C)C(=O)CCC(C)C)C3OC(=O)C(C)C)OCC(O)C2O)cc1 (some centres undefined) | 0.884 | 5.88 µM | 0.00812 | 0.0389 µM | < 0.00275 | 3.26 µM | 0.0336 | 3.97 | 0.0115 | 0.067 µM | 3.32 | 7.2 | 0.0154 | 0.216 µM | 0.0121 | 3.34 | 0.204 | 5.22 µM | 3.02 µM | 6.53 |
| OCCNC(=S)Nc1ccc(-c2nc(N3C[C@H]4CC[C@@H](C3)O4)c3cccn3n2)cc1 | 0.0664 | 4.39 µM | 0.0654 | 5.93 µM | 0.021 | 0.507 µM | 0.189 | 13.2 | < 0.0152 | 0.194 µM | 0.172 | 2.16 | 0.0597 | 2.86 µM | 0.082 | > 38 | 0.0379 | 15.3 µM | 0.0617 µM | 16.9 |
| Cc1c(C)n(CC(O)CNC2CCCCC2C)c2ccccc12 (centres undefined) | 16.4 | 29.9 µM | – | – | 16 | 30.1 µM | 15.5 | 30.9 | 10.8 | 23.4 µM | 15.5 | 29.8 | 12.8 | 25.4 µM | 12.4 | 34.1 | 12.9 | 25.7 µM | 16 µM | 30.5 |
| CC(C)C[C@H](NC(=O)[C@H](Cc1ccccc1)NC(=O)c1cnccn1)B(O)O | 0.00104 | < 0.0124 µM and 0.00238 µM | 0.00322 | < 0.0184 µM and 0.0321 µM | 0.00103 | < 0.0139 µM and 0.00341 µM | – | – | 0.00193 | 0.0228 µM and 0.0179 µM | 0.0613 | – | 0.000748 | < 0.01 µM and 0.00186 µM | 0.00219 | – | 0.0026 | 0.0667 µM and 0.0312 µM and < 0.0499 µM | < 0.0114 µM and 0.00194 µM | – |
| S=P(C1CCCCC1)(C1CCCCC1)C(c1cccnc1)N1CCCC1 (centres undefined) | – | > 100 µM | – | 34.6 µM | – | 35.6 µM | – | > 100 | – | – | – | 38.6 | – | 33.6 µM | – | 44.7 | – | > 100 µM | – | 33.1 |
| Oc1ccccc1/C=N/Nc1nc2ccccc2s1 | 2.46 | 34.7 µM | – | – | > 100 | > 100 µM | 18.7 | > 100 | 4.86 | > 100 µM | 6.1 | > 100 | > 100 | > 100 µM | 7.71 | > 100 | > 100 | > 100 µM | 22.9 µM | > 100 |
